The values that follow come from PubChem BioAssay AID328 (DTP/NCI, 2004).

The subject of the assay is BDF1 mice, P388 leukemia ip, median survival T/C. Description: NCI In Vivo Anticancer Drug Screen. Data for tumor model P388 Leukemia (intraperitoneal) in B6D2F1 (BDF1) mice. Conditions: endpoint: median survival time, higher = longer survival. Summed up:
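In tumour-bearing mice, survival after compound treatment is set against the vehicle group and given as a quotient.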

SMILES strings stand for the structures. Toxic doses and inconclusive results are not listed.

On to `COC1=C(N2CC2)C(=O)C(OC)=C(N2CC2)C1=O`, for which the T/C (dose: 0.5 mg/kg/injection, schedule: Q01DX009 (ip), vehicle: Klucel (hydroxypropylcellulose) (HPC)) is 217 % of control; the T/C (dose: 0.5 mg/kg/injection, schedule: Q01DX009 (ip), vehicle: saline) is 162 % of control; the T/C (dose: 0.8 mg/kg/injection, schedule: Q04DX003 (ip), vehicle: saline with Tween-80) was 170 % of control; the T/C (dose: 1.0 mg/kg/injection, schedule: Q01DX009 (ip), vehicle: Klucel (hydroxypropylcellulose) (HPC)) is 234 % of control; the T/C (dose: 1.0 mg/kg/injection, schedule: Q01DX009 (ip), vehicle: saline with Tween-80) is 179 % of control; the T/C (dose: 1.0 mg/kg/injection, schedule: Q01DX009 (ip), vehicle: saline) is 201 % of control. For the same compound, the T/C runs as follows: (dose: 1.8 mg/kg/injection, schedule: Q04DX003 (ip), vehicle: saline with Tween-80) 154 % of control; (dose: 2.0 mg/kg/injection, schedule: Q01DX009 (ip), vehicle: Klucel (hydroxypropylcellulose) (HPC)) 285 % of control; (dose: 2.0 mg/kg/injection, schedule: Q01DX009 (ip), vehicle: saline with Tween-80) 91 % of control; (dose: 2.0 mg/kg/injection, schedule: Q01DX009 (ip), vehicle: saline) 252 % of control; (dose: 2.6 mg/kg/injection, schedule: Q04DX003 (ip), vehicle: saline with Tween-80) 173 % of control; (dose: 4.0 mg/kg/injection, schedule: Q01DX009 (ip), vehicle: Klucel (hydroxypropylcellulose) (HPC)) 326 % of control. The T/C by setting is: (dose: 4.0 mg/kg/injection, schedule: Q01DX009 (ip), vehicle: saline) 92 % of control; (dose: 4.0 mg/kg/injection, schedule: Q04DX003 (ip), vehicle: saline with Tween-80) 165 % of control; (dose: 6.0 mg/kg/injection, schedule: Q04DX003 (ip), vehicle: saline with Tween-80) 200 % of control.

`O=C(O)CC(O)(CC(=O)O)C(=O)O`: the T/C by setting is: (dose: 50.0 mg/kg/injection, schedule: Q02DX005 (ip), vehicle: water) 123 % of control; (dose: 100.0 mg/kg/injection, schedule: Q02DX005 (ip), vehicle: water) 114 % of control; (dose: 400.0 mg/kg/injection, schedule: Q02DX005 (ip), vehicle: water) 94 % of control.

For `Cc1cc(N(C)C)cc(C)c1N=Nc1cc[n+]([O-])cc1`, the T/C runs as follows: (dose: 50.0 mg/kg/injection, schedule: Q01DX009 (ip), vehicle: saline with Tween-80) 104 % of control; (dose: 100.0 mg/kg/injection, schedule: Q01DX009 (ip), vehicle: saline with Tween-80) 124 % of control.

As for `NC(=O)c1ccc(C(N)=O)cc1`, the T/C is 100 % of control (dose: 100.0 mg/kg/injection, schedule: Q04DX003 (ip), vehicle: saline with Tween-80); 104 % of control (dose: 200.0 mg/kg/injection, schedule: Q04DX003 (ip), vehicle: saline with Tween-80); 100 % of control (dose: 400.0 mg/kg/injection, schedule: Q04DX003 (ip), vehicle: saline with Tween-80).

On to `CC1(C)C=C(C(Br)c2cccc(Br)c2)C(=O)c2ccccc21` (stereo not drawn), for which the T/C by setting is: (dose: 100.0 mg/kg/injection, schedule: Q01DX009 (ip), vehicle: Klucel (hydroxypropylcellulose) (HPC)) 120 % of control; (dose: 100.0 mg/kg/injection, schedule: Q04DX003 (ip), vehicle: Klucel (hydroxypropylcellulose) (HPC)) 90 % of control; (dose: 200.0 mg/kg/injection, schedule: Q01DX009 (ip), vehicle: Klucel (hydroxypropylcellulose) (HPC)) 110 % of control; (dose: 200.0 mg/kg/injection, schedule: Q04DX003 (ip), vehicle: Klucel (hydroxypropylcellulose) (HPC)) 95 % of control; (dose: 400.0 mg/kg/injection, schedule: Q01DX009 (ip), vehicle: Klucel (hydroxypropylcellulose) (HPC)) 110 % of control; (dose: 400.0 mg/kg/injection, schedule: Q04DX003 (ip), vehicle: Klucel (hydroxypropylcellulose) (HPC)) 109 % of control.

As for `[NH-]C(CCC(N)=O)C(=O)O.[NH-]C(CCCCN)C(=O)O.[Zn+2]` (stereo not drawn), the T/C (dose: 50.0 mg/kg/injection, schedule: Q01DX005 (ip), vehicle: saline) was 106 % of control.

For the compound `Cc1cc(Br)c2ccccc2c1N(CC(=O)O)S(=O)(=O)c1ccccc1`, the T/C by setting is: (dose: 100.0 mg/kg/injection, schedule: Q01DX001 (ip), vehicle: saline with Tween-80) 100 % of control; (dose: 200.0 mg/kg/injection, schedule: Q01DX001 (ip), vehicle: saline with Tween-80) 109 % of control; (dose: 400.0 mg/kg/injection, schedule: Q01DX001 (ip), vehicle: saline with Tween-80) 109 % of control.
